Values of other authors, collected in US4966770A (priority 1989, dated 1990).

solubility in alcohol: slightly soluble in alcohol
solubility in water: very slightly soluble in water
SMILES: C[C@]12C=CC(=O)C=C1CC[C@@H]1[C@@H]2C(=O)C[C@@]2(C)[C@H]1CC[C@]2(O)C(=O)CO [prednisone]
